According to PMC10454728, “A Comparative Study on the Lysosomal Cation Channel TMEM175 Using Automated Whole-Cell Patch-Clamp, Lysosomal Patch-Clamp, and Solid Supported Membrane-Based Electrophysiology: Functional Characterization and High-Throughput Screening Assay Development” (International Journal of Molecular Sciences, 2023):
Each block holds one compound with its values, some of them ahead of it.

Key:
[1] = target: T1, TMEM175 (Homo sapiens, UniProt Q9BSA9); test: SSME K+ flux on TMEM175 lysosomes (SURFE2R N1): pH, pH gradient, intra-lysosomal application
T1 sequence (Q9BSA9 1-504): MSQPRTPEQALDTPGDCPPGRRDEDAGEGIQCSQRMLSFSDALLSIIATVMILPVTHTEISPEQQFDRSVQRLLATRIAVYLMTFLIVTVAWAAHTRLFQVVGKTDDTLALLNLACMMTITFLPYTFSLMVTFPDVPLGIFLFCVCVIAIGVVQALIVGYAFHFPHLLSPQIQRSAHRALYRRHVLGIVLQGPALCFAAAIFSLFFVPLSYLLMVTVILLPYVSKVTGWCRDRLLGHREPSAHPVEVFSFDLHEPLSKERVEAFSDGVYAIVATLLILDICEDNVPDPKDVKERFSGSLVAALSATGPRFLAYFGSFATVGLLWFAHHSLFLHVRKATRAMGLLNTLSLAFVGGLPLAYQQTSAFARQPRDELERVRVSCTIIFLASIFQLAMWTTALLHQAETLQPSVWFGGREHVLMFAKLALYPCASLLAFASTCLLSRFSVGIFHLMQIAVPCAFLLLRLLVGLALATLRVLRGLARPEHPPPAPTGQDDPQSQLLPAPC
Protocol: A solution exchange of 50 mM Na^+ against 50 mM K^+ was used to stimulate TMEM175. Datasets for each pH were measured on different sensors. […] Average peak currents and SEM, recorded from N = 5 sensors, are shown. Imax was fixed in the subsequent fitting with the equation I = Imax − (Imax − Imin)/(1 + (c/EC50)^n). […] Both datasets—symmetrical pH 7.6 (green) and pH gradient (blue) conditions—were recorded on the same sensor, with N = 5 sensors in total. […] Currents in the presence and the absence of a pH gradient were recorded with different sensors. Each sensor was used for four measurements in the following sequence: in the absence of compound, in the presence of 100 nM compound, in the presence of 10 µM compound, and in the absence of compound (wash-out). Datasets were normalized to the peak current recorded in the absence of compound before averaging. […] Sensors were prepared with TMEM175 lysosomes that were pre-loaded via 1:10 dilution in zinc containing non-activating solution, followed by 10 pulses of sonication as described in the Methods section (Section 4.2.5). […] The three different experimental conditions shown in one graph were applied on the same sensor. Average peak currents and SD from N = 4 sensors are shown, and no normalization was applied.
To test whether the pH is a relevant parameter affecting the efficacy of compounds, we tested the effect of compounds on TMEM175 currents under different pH conditions using the SURFE^2R N1 (Figure 9B–D).
To examine this, we conducted SSME experiments utilizing lysosomes that were pre-loaded with varying concentrations of zinc (Figure 9E). This enabled us to investigate the effects of zinc on TMEM175 activity when it interacts with the lysosomal side of TMEM175, closely simulating the conditions observed in whole-cell APC experiments (Figure 7E). […]
Datasets recorded with the SURFE^2R N1 are usually obtained with the same sensor, i.e., all concentration-dependent datapoints are obtained by sequential measurements. […]

[2] = system: control lysosomes expressing endogenous TMEM175; test: SSME off-target compound effects on control lysosomes (SURFE2R 96SE); type: biochemical, human
Excerpt: ; (A) Dose-response curves for SC-79; (B) Dose-response curves for cluster 1 compounds showing similar effects with all three technologies; (C) Dose-response curves for cluster 2 compounds showing no activity in LPC, but higher activity in APC; (D) Dose-response curves for cluster 3 compounds showing high activity in LPC, but lower activity in APC; For all assay technologies, datapoints were normalized to the current recorded before compound addition and averaged across at least N = 3 individual experiments. For clarity reasons, the SEM is not shown; the average relative SEM after averaging datapoints recorded with two highest compound concentrations is 35.6% for LPC data and 2.9% for SSME data. The APC data were acquired using a voltage application protocol distinct from the one depicted in Figure 7B, as described in the Methods section. Datasets were not corrected for artifacts (as observed in SSME) or off-target compound effects. For SSME data, we indicate the difference in the peak current when applying the four highest concentrations of a compound to control lysosomes (to assess off-target effects) compared to the current recorded with TMEM175 lysosomes prior to compound addition. […] Considerable off-target compound effects are observed when the given percentage approaches the percentage of enhancement recorded with the TMEM175 sample at the given compound concentration. […] . When an EC50 value was determined from the fit, it is highlighted by a vertical dotted line. […]
We also investigated the effect of the eight test compounds on the artifact currents recorded with control lysosomes using the SURFE^2R 96SE.
Artifact currents are typically in the range of −1 nA, while TMEM175 sample currents are +4 nA (Figure 1K). […] This corresponds to 3% to 30% of the current recorded with the TMEM175 sample in the absence of the compound. […]
a. For each single well, we performed an in-well normalization: the artifact corrected peak current obtained using a given condition is devided by the artifact corrected reference peak current recorded within the same well. b. […]

[3] = target: T1, TMEM175; test: SSME K+ flux compound assay on purified lysosomes overexpressing TMEM175 (SURFE2R 96SE); type: biochemical
[4] = target: T1, TMEM175; test: Whole-cell automated patch-clamp (APC) Cs+ flux assay, SyncroPatch 384i, HEK293 overexpressing TMEM175; type: cell-based; conditions: 50 µM, at +100 mV, Figure 7F
[5] = system: control HEK293 UT cells; test: Whole-cell APC off-target effects on control cells; type: cell-based, human; conditions: 50 µM
Protocol: Figure 7 Whole-cell APC recordings on TMEM175: (A) Schematic representation of assay conditions in the Cs^+ flux assay. The ions known to permeate through TMEM175 in the external and internal solutions are indicated; (B) Voltage protocol and time points for the read-out of inward and outward currents; (C) The compound application protocol consists of the recording of the TMEM175 baseline current. […] Success rates were determined based on the QC criteria provided in the Methods section. […] We determined average values, AVGpos and AVGneg, and standard deviations, SDpos and SDneg, of the recorded currents. […] Datapoints were normalized to the TMEM175 baseline current before compound addition and then averaged across at least N = 5 cells. Error bars represent the SEM obtained from automated data analysis using DataControl384. […] The compound effects on control cells were between +10% and -40% compared to the control baseline current. […]. […] Therefore, off-target compound effects seem to be negligible in the APC assay.

SMILES: Nc1ccncc1 [4-AP, 4-aminopyridine]
Effect of 4-AP, SSME (SURFE2R N1) ([1]; pH 4.0 (no TMEM175 activity at this pH)): no effect

SMILES: CCCCC1(C2CCCC2)Cc2cc(OCCCC(=O)O)c(Cl)c(Cl)c2C1=O (stereo not shown) [DCPIB]
Off-target effect of DCPIB on control lysosomes (SURFE2R 96SE) ([2]; 20 µM and below): did not have an effect
Off-target effect of DCPIB on control lysosomes (SURFE2R 96SE) ([2]; 60 µM DCPIB, Figure S5): off-target inhibition
Effect of K+ concentration (driving force) on apparent EC50 ([3]; 2, 5, 10, 50 mM K+, 3, 10, 30 µM DCPIB): not affected

EC50 ([3]; 50 mM K+ jump, not corrected for artifacts or off-target effects): 2.9 ± 2.3 µM
Current of TMEM175 cells after enhancer, APC [4]: 305 ± 39%
SMILES: CCOC(=O)C1=C(N)Oc2ccc(Cl)cc2C1C(C#N)C(=O)OCC (stereo not shown) [SC-79]

Effect at 50 µM, SSME ([1]; 50 µM zinc, lysosomal side (similar to external application)): did not observe any effect
IC50 ([1]; read-out: IC50, intra-lysosomal application, SSME (SURFE2R N1), lysosomes pre-loaded with zinc, zinc only inside): 700 ± 300 µM
SMILES: [Cl-].[Cl-].[Zn+2] [Zn, ZnCl2]
Off-target effect of zinc on control lysosomes (SURFE2R 96SE) ([2]; in-plate control, Figure S5): small off-target inhibition
Decrease of baseline current of control cells [5]: 30–40%
